Assays:
[1] = biological target: T1, AChE (Homo sapiens, UniProt P22303); test: biochemical; details: mean ± SD of three independent experiments
T1 construct: purchased BioLegend (via Biocom Africa (Pty) Ltd.)
Procedure: (§1) The melting point values of the test compounds were recorded on a Thermocouple digital melting point apparatus (Mettler Toledo LLC, Columbus, OH, USA). The infrared (IR) spectra were recorded using the thin-film method on a Bruker VERTEX 70 FT-IR Spectrometer (Bruker Optics, Billerica, MA, USA) equipped with an ATR (diamond attenuated total reflectance) accessory. Merck kieselgel 60 (0.063–0.200 mm) (Merck KGaA, Frankfurt, Germany) was used as a stationary phase for column chromatography. The ^1H-NMR and ^13C-NMR spectra of the prepared compounds were obtained as deuterated dimethyl sulfoxide ((CD3)2SO) solutions using Agilent 500 MHz NMR spectrometer (Agilent Technologies, Oxford, UK) operating at 500 MHz and 125 MHz for ^1H and ^13C, respectively. The chemical shifts are quoted relative to tetramethylsilane (TMS) used as an internal reference standard (δ = 0.00 ppm) or a residual protonated solvent. The high-resolution mass spectra were recorded at an ionization potential of 70 eV using Micromass Autospec-TOF (double focusing high resolution) instrument (Waters Corp., Milford, MA, USA). The synthesis and analytical data for 2-amino-5-iodobenzamide (1) have been reported in our previous study. Recombinant human AChE (BioLegend) and BChE (Cloud-Clone Corp.) were purchased via Biocom Africa (Pty) Ltd. (Centurion, Pretoria, South Africa).
(§2) AChE and BChE were used to determine cholinesterase activities spectrophotometrically using […] as substrates, respectively, following a modification of the Ellman’s method, as described in our previous study, and the reactions were performed in triplicate at 37 °C in a 96-well plate. […] A multi-channel pipette was used for the addition of reagents to the wells.
To each well of a 96-well plate, 8.0 μL solution of the test compound, 2.0 μL of AChE (0.04 mg/mL), and 70 μL of Tris buffer (C4H11NO3, 50 mM, pH 7.7) were added sequentially. The assay mixture was pre-incubated for 30 min at room temperature, which was followed by the addition of 10 μL of 5,5′-dithiobis-(2-nitrobenzoic acid) (DTNB, 3 mM in Tris buffer, 50 mM, pH 7.7) and 10 μL of […] (AChI, 5 mM in tris buffer, 50 mM, pH 7.7) to each well to initiate the reaction. […] The average values obtained from the absorbance readings were used to determine the IC50 and standard deviation values using the Graph Pad Prism (version 5.0, GraphPad software Inc., San Diego, CA, USA).

[2] = biological target: T2, BChE (Homo sapiens, UniProt P06276); test: biochemical; details: mean ± SD of three independent experiments
T2 construct: purchased Cloud-Clone Corp. (via Biocom Africa (Pty) Ltd.)
Procedure: as §1, §2
A total of 8.0 μL of the test compound and 2.0 μL of BChE (0.02 mg/mL) was added to each of the designated wells of the 96-well plate, and the mixtures were incubated at room temperature for 30 min. Tris buffer (70 μL) was added to each well containing the reaction mixture and incubation was continued for a further 10 min at this temperature, which was followed by the addition of 10 μL solution of 5,5′-dithiobis-(2-nitrobenzoic acid) (DTNB) (3 mM in Tris buffer, 50 mM, pH 7.7) and butyrylcholine iodide (5 mM in Tris buffer, 50 mM, pH 7.7) to each well to initiate the reaction. […] The IC50 and standard deviation values using the Graph Pad Prism.

[3] = biological target: T3, β-secretase (Homo sapiens, UniProt P56817); test: β-Secretase (BACE-1) inhibition assay; assay type: biochemical; details: mean ± SD of three independent experiments
T3 construct: purchased Thermo Fisher Scientific Corporation; host or cells: baculovirus-expressed
Procedure: The β-secretase inhibitory activities of the test compounds were assayed in triplicates in 96-well plates using a recombinant baculovirus-expressed β-secretase and a specific substrate (Rh-[…]-Quencher), according to the manufacturer’s (Thermo Fisher Scientific Corporation, Johannesburg, Gauteng, South Africa) instructions, as described in our previous study. […] To each well, 2.0 μL human recombinant β-secretase (1.0 U/mL) was added to start the reaction and the reaction mixture was incubated for 60 min at room temperature. […] The IC50 and standard deviation values of both the test compounds and reference standard were calculated using the Graph Pad Prism.

[4] = DPPH radical scavenging assay; details: read-out: IC50 (SD) DPPH
Procedure: The antioxidant activities of the test compounds against ascorbic acid (Sigma Aldrich, Saint Louis, MO, USA) as a positive control were evaluated using a 2,2-diphenyl-1-picrylhydrazyl (DPPH) radical scavenging assay developed by Zhu et al., as described in our previous study. Duplicate solutions (20 μL) of the test compounds and ascorbic acid in DMSO (final concentrations: 5, 10, 25, 50, and 100 μM) were added into each designated well of a 96-well plate. A solution of DPPH (0.20 mM) (20 μL) in methanol was added to each well, and the 96-well plate was wrapped with aluminium foil and incubated in the dark for 45 min. Five absorbance readings were recorded at 512 nm using a Varioskan flash microplate spectrophotometer reader. The average values obtained from the absorbance readings were used to determine the IC50 and standard deviation values.

[5] = Nitric oxide radical scavenging assay (Griess reaction); details: NO radical scavenging
Procedure: Nitric oxide was generated from sodium nitroprusside and measured by Griess’ reaction following the literature method. The experiment was done in triplicate with ascorbic acid (vitamin C) used as a positive control for the assay. In total, 50 μL of each of the test compounds and the positive control at various concentrations (0.1, 0.5, 1.0, 5.0, and 10.0 μM in methanol) were added to each designated well of the 96 well plate. A total of 50 μL of sodium nitroprusside (10 mM) prepared in saline phosphate buffer (pH = 7.4) was then added to each well and the reaction mixture incubated at room temperature for 3 h. Afterward, 300 μL of the Griess reagent (a mixture of 0.2% N-(1-naphthyl)ethylenediamine dihydrochloride and 2% sulfanilamide in […]) was added to each well and absorbance was read at 546 nm using a Varioskan flash microplate spectrophotometer reader.

[6] = Cytotoxicity (MTT assay) on Vero cells
Procedure: (§3) The cytotoxicity activity of the compounds was evaluated using the 3-(4,5-dimethylthiazol-2-yl)-2,5-diphenyltetrazolium bromide (MTT) assay following a modification of a method by Mosmann. Normal monkey kidney cells (Vero cells) and adeno-carcinomic human epithelial cells (A549 cells) were maintained in Dulbecco’s modified Eagle’s medium (DMEM, Gibco) supplemented with 10% fetal bovine serum (FBS) and 1% penicillin/streptomycin in culture flasks and incubated at 37 °C in 5% CO2. […] Cells were seeded at 1 × 10^5 cells/well and incubated overnight to allow cell attachment. After 24 h, treatments were administered with different concentrations (0, 2.5, 5, 10, 25, 50, and 100 μM) of the compounds and doxorubicin (positive control). After 24 h of incubation, 20 μL of the MTT solution (5 mg/mL) was added in all the wells, which was followed by 4 h of incubation.

[7] = in vitro; details: human
Procedure: as §3

[8] = tested on: Vero cells; test: LPS-induced ROS production in Vero cells (H2DCF-DA); assay type: cell-based, monkey; details: 10 μM compound, LPS 1 μg/mL, 24 h (Figure 9a)
Procedure: (§4) Mitochondrial ROS levels in Vero and A549 cell lines was measured using the 2′,7′-dichlorofluorescin diacetate (H2DCF-DA) (Sigma-Aldrich, St. Louis, MO, USA, Merck, Darmstadt, Germany), fluorescent probe. Cells (1 × 10^5) were seeded in 96 well plates and incubated overnight at 37 °C in 5% CO2. A minimum non-toxic concentration (10 μM) of compounds (2a and 3b) was added separately as treatment and further incubated for an hour, after which LPS (1 μg/mL) was added to induce the production of ROS. After 24 h of incubation, the media was aspirated, cells were rinsed with PBS, and followed by the addition of H2DCF-DA (10 μM) for 30 min in the dark. The absorbance of the fluorescence was measured using a microplate reader (VarioSkan Flash, Thermo Fisher Scientific, Finland) at 485 and 535 nm values of excitation and emission, respectively. Data was processed and analysed using ANOVA, which was followed by Duncan’s multiple comparison test.

[9] = tested on: A549 cells; test: LPS-induced ROS production in A549 cells (H2DCF-DA); assay type: cell-based, human; details: 10 μM compound, LPS 1 μg/mL, 24 h (Figure 9b)
Procedure: as §4

[10] = tested on: BChE; set-up: method as in PMID 23722618; details: cited from earlier work

T3 sequence (P56817 46-501): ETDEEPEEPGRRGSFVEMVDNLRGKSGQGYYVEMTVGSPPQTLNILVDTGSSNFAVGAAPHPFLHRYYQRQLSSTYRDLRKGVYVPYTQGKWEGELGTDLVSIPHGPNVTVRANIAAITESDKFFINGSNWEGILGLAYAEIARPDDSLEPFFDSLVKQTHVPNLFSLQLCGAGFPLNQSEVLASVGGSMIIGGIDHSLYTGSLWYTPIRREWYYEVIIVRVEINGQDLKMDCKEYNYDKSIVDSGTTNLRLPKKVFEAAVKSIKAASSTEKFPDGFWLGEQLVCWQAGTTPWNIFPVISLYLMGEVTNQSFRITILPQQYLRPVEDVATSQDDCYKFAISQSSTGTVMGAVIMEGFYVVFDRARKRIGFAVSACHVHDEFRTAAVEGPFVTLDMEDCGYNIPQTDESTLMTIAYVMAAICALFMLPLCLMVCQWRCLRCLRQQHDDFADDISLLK
T1 sequence (P22303 32-614): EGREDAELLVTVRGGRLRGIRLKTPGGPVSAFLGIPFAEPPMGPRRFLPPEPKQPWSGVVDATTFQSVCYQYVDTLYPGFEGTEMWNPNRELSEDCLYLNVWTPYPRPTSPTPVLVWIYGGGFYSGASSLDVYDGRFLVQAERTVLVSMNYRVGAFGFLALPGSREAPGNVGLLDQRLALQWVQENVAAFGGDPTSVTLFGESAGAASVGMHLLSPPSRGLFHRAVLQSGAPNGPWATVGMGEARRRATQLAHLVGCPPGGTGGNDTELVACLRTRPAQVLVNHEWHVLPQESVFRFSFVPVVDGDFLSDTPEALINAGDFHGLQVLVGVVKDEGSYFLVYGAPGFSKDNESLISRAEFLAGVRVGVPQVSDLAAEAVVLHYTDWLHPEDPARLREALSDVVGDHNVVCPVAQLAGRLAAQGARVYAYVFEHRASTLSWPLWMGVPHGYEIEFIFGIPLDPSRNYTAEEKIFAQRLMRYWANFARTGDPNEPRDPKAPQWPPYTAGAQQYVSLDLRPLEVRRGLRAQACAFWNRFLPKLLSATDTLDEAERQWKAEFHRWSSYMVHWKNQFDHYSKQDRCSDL
T2 sequence (P06276 29-602): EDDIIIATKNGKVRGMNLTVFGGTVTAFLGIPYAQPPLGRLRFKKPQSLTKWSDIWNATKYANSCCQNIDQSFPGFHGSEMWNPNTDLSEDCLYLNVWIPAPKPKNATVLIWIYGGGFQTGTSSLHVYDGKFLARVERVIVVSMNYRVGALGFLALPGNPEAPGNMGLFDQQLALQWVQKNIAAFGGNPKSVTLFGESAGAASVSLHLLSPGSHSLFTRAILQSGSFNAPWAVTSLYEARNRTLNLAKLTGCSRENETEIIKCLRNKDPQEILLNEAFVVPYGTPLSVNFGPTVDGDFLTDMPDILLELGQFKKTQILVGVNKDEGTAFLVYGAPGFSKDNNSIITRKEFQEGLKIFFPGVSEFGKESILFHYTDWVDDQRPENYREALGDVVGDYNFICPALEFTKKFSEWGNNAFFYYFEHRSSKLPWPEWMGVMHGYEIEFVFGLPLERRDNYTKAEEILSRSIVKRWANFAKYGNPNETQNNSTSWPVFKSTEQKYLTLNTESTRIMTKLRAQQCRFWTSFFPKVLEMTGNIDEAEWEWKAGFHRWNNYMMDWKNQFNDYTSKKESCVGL

| Structure (SMILES) | IC50 [1] | IC50 [2] | IC50 [3] | IC50 [4] | IC50 [5] | also measured |
| --- | --- | --- | --- | --- | --- | --- |
| Cc1ccc(S(=O)(=O)Nc2ccc(/C=C/c3ccccc3)cc2C(N)=O)cc1 [Compound 3a, (E)-5-Styryl-2-[[(4-methylphenyl)sulfonyl]amino]benzamide] | 9.5 ± 0.53 µM | 10.8 ± 0.4 µM | 16.5 ± 0.31 µM | 19.4 ± 0.4 µM | 13.1 ± 0.43 µM | – |
| O=C1O[C@H]([C@@H](O)CO)C(O)=C1O [Ascorbic acid, reference compound] | – | – | – | 4.18 ± 0.13 µM | 6.23 ± 0.13 µM | IC50 ([4]; listed as ascorbic acid): 4.2 µM; IC50 ([5]; listed as ascorbic acid): 6.2 µM |
| Cc1ccc(S(=O)(=O)Nc2ccc(/C=C/c3ccc(F)cc3)cc2C(N)=O)cc1 [Compound 3b, (E)-5-(4-Fluorostyryl)-2-[[(4-methylphenyl)sulfonyl]amino]benzamide] | 4.3 ± 0.48 µM | 8.1 ± 0.52 µM | 10.1 ± 0.18 µM | 25.6 ± 0.3 µM | – | IC50 at 24 h ([6]; monkey, Vero cells (normal monkey kidney cells)): 191.4 ± 0.6 µM; IC50 at 24 h ([7]; A549 cells (adeno-carcinomic human epithelial cells)): 55 ± 0.11 µM; suppression of LPS-induced ROS [8]: ~40%; ROS reduction (in words) [9]: significant ROS reduction |
| COc1ccc(/C=C/c2ccc(NS(=O)(=O)c3ccc(C)cc3)c(C(N)=O)c2)cc1 [Compound 3d, (E)-5-(4-Methoxystyryl)-2-[[(4-methylphenyl)sulfonyl]amino]benzamide] | 11.3 ± 0.23 µM | 13.3 ± 0.26 µM | 19.3 ± 0.24 µM | 9.1 ± 0.26 µM | 12.3 ± 0.31 µM | – |
| NC(=O)c1cc(/C=C/c2ccc(Cl)cc2)ccc1N [Compound 2c, (E)-2-Amino-5-(4-chlorostyryl)benzamide] | 8.6 ± 0.42 µM | 18.9 ± 0.24 µM | 6.7 ± 0.18 µM | 11.3 ± 0.11 µM | 9.3 ± 0.13 µM | – |
| COc1cccc2c1C(=O)c1c(O)c3c(c(O)c1C2=O)C[C@@](O)(C(=O)CO)C[C@@H]3O[C@H]1C[C@H](N)[C@H](O)[C@H](C)O1 [Doxorubicin, reference compound] | – | – | – | – | – | IC50 at 24 h [6]: 0.66 ± 0.12 µM; IC50 at 24 h [7]: 1.14 ± 0.23 µM |
| NC(=O)c1cc(/C=C/c2ccc(F)cc2)ccc1N [Compound 2b, (E)-2-Amino-5-(4-fluorostyryl)benzamide] | 5.4 ± 0.12 µM | 19.7 ± 0.25 µM | 13.9 ± 0.25 µM | 12.9 ± 0.22 µM | 15.8 ± 0.3 µM | – |
| Cc1ccc(S(=O)(=O)Nc2ccc(/C=C/c3ccc(Cl)cc3)cc2C(N)=O)cc1 [Compound 3c, (E)-5-(4-Chlorostyryl)-2-[[(4-methylphenyl)sulfonyl]amino]benzamide] | 7.8 ± 0.21 µM | 6.9 ± 0.1 µM | 15 ± 0.16 µM | 22.4 ± 0.51 µM | 8.6 ± 0.3 µM | – |
| Oc1ccccc1/C=C/c1cc(O)c(F)c(O)c1 [C] | – | – | – | – | – | fold more active and selective against BChE than against AChE [10]: 94 fold |
| COc1ccc(/C=C/c2ccc(N)c(C(N)=O)c2)cc1 [Compound 2d, (E)-2-Amino-5-(4-methoxystyryl)benzamide] | 7.8 ± 0.3 µM | 14.6 ± 0.47 µM | 17.2 ± 0.31 µM | 20.8 ± 0.24 µM | 11.2 ± 0.22 µM | – |

Reference: publication PMC8145986, “In Vitro Enzymatic and Kinetic Studies, and In Silico Drug-Receptor Interactions, and Drug-Like Profiling of the 5-Styrylbenzamide Derivatives as Potential Cholinesterase and β-Secretase Inhibitors with Antioxidant Properties” (Antioxidants, 2021)
